Assay results from US11613538B2, “Method of inhibiting or reducing a viral infection” (PTC Therapeutics, Inc., priority 2009, dated 2023).

Tested on: hypoxia-induced VEGF production in HeLa cells
Test: cells
Format: cell-based, human
Conditions: Homo sapiens, HeLa

In the case of O=C(OCC1CCC1)N1CCc2c([nH]c3ccc(Cl)cc23)[C@@H]1c1ccc(OC[C@H](O)CO)cc1 [Compound 1379], the EC50 is reported as < 8 nM.

For O=C(OCC1CC1)N1CCc2c([nH]c3ccc(Cl)cc23)[C@@H]1c1ccc(OC[C@H](O)CO)cc1 [Compound 1377], the EC50 was < 8 nM.

O=C(Oc1ccc(Cl)cc1)N1CCc2c([nH]c3ccc(Cl)cc23)[C@@H]1c1ccc(OC[C@@H](O)CN2CCOCC2)cc1 [Compound 1071] was tested, and the EC50 was < 8 nM.

With CCOC(=O)N1CCc2c([nH]c3ccc(Cl)cc23)C1c1ccc(OCCNc2ncncn2)cc1 (stereo not drawn) [Compound 1433] the EC50 was < 8 nM.

In the case of OCCCOc1ccc([C@H]2c3[nH]c4ccc(Cl)cc4c3CCN2c2ncccn2)cc1 [Compound 1256], the EC50 is reported as < 8 nM.

O=C(c1ccccc1)N1CCc2c([nH]c3ccc(Cl)cc23)C1c1ccc(OCCCN2CCOCC2)cc1 (stereo not drawn) [Compound 1140] showed an EC50 of 40 to 200 nM.

For COc1ccc(C2c3[nH]c4ccc(Cl)cc4c3CCN2C(=S)Oc2ccc(C)cc2)cn1 (stereo not drawn) [Compound 1477], the EC50 was 8 to 40 nM.

Molecule Cc1ccc(C(=O)N2CCc3c([nH]c4ccc(Cl)cc34)C2c2ccc(OCCCn3cncn3)cc2)cc1 (stereo not drawn) [Compound 1135] has an EC50 of 8 to 40 nM.

In the case of CCOC(=O)N1CCc2c([nH]c3ccc(Cl)cc23)C1c1ccc(OCC(O)CNC(=O)C(C)C)cc1 (stereo not drawn) [Compound 1465], the EC50 is reported as 8 to 40 nM.

Molecule COc1ccc(C2c3[nH]c4ccc(C#N)cc4c3CCN2C(=O)Oc2ccc(Cl)cc2)cc1 (stereo not drawn) [Compound 1513] has an EC50 of 40 to 200 nM.

For CC(C)COC(=O)N1CCc2c([nH]c3ccc(Cl)cc23)C1c1ccc(OCC2OCCO2)cc1 (stereo not drawn) [Compound 1037], the EC50 was < 8 nM.

Work on CC(C)COC(=O)N1CCc2c([nH]c3ccc(Cl)cc23)C1c1ccc(OCCOc2cc(N)n[nH]2)cc1 (stereo not drawn) [Compound 1406] yielded an EC50 of 40 to 200 nM.

With Clc1ccc2[nH]c3c(c2c1)CCN(c1ncccn1)C3c1ccc(OC2CCOCC2)cc1 (stereo not drawn) [Compound 1582] the EC50 was < 8 nM.

In the case of CC1(C)OC[C@@H](COc2ccc([C@H]3c4[nH]c5ccc(Cl)cc5c4CCN3C(=O)Oc3ccc(Cl)cc3)cc2)O1 [Compound 1260], the EC50 is reported as < 8 nM.

With CCOC(=O)N1CCc2c([nH]c3ccc(Cl)cc23)C1c1cnc(OC)nc1 (stereo not drawn) [Compound 1691] the EC50 was 40 to 200 nM.

O=C(COc1ccc(C2c3[nH]c4ccc(Cl)cc4c3CCN2C(=O)Oc2ccc(F)cc2)cc1)N1CCOCC1 (stereo not drawn) [Compound 1023] showed an EC50 of 8 to 40 nM.

For CCOC(=O)C(=O)N1CCc2c([nH]c3ccc(Cl)cc23)C1c1ccc(OC)cc1 (stereo not drawn) [Compound 1334], the EC50 was 40 to 200 nM.

CCCOC(=O)C(=O)N1CCc2c([nH]c3ccc(Cl)cc23)C1c1ccc(OC)cc1 (stereo not drawn) [Compound 1339] gave an EC50 of 8 to 40 nM.

Work on C=C(C)OC(=O)N1CCc2c([nH]c3ccc(Cl)cc23)C1c1ccc(OCC2OCCO2)cc1 (stereo not drawn) [Compound 1046] yielded an EC50 of 8 to 40 nM.

For CC1(C)OC[C@H](CCOc2ccc(C3c4[nH]c5ccc(Cl)cc5c4CCN3C(=O)Oc3ccc(Cl)cc3)cc2)O1 (stereo partly drawn) [Compound 1162], the EC50 was < 8 nM.

For C=CCOC(=O)N1CCc2c([nH]c3ccc(Cl)cc23)C1c1ccc(OCC2OCCO2)cc1 (stereo not drawn) [Compound 1044], the EC50 was < 8 nM.

With COc1ccc(C2c3[nH]c4ccc(Cl)cc4c3CCN2C(=O)C(=O)Nc2ccc(Cl)cc2)cc1 (stereo not drawn) [Compound 1711] the EC50 was 8 to 40 nM.

In the case of CCCOC(=O)NCC(O)COc1ccc(C2c3[nH]c4ccc(Cl)cc4c3CCN2C(=O)OCC)cc1 (stereo not drawn) [Compound 1471], the EC50 is reported as < 8 nM.

For O=C(OCC1CCC1)N1CCc2c([nH]c3ccc(Cl)cc23)[C@@H]1c1ccc(OC[C@@H](O)CO)cc1 [Compound 1382], the EC50 was < 8 nM.

In the case of COc1ccc(C2c3[nH]c4ccc(S(C)(=O)=O)cc4c3CCN2C(=O)Oc2ccc(Cl)cc2)cc1 (stereo not drawn) [Compound 1497], the EC50 is reported as > 1000 nM.

With C=CCOC(=O)N1CCc2c([nH]c3ccc(Cl)cc23)C1c1ccc(OCCCN2CCOCC2)cc1 (stereo not drawn) [Compound 1079] the EC50 was < 8 nM.

For O=C(c1ccc(F)cc1)N1CCc2c([nH]c3ccc(Cl)cc23)C1c1ccc(OCCCn2cncn2)cc1 (stereo not drawn) [Compound 1138], the EC50 was 8 to 40 nM.

COc1ccc(C2c3[nH]c4cccc(Cl)c4c3CCN2C(=O)Oc2ccc(F)cc2)cc1 (stereo not drawn) [Compound 1533] showed an EC50 of 40 to 200 nM.

In the case of COC(=O)[C@H]1CCCN1CCCOc1ccc(C2c3[nH]c4ccc(Cl)cc4c3CCN2C(=O)Oc2ccc(Cl)cc2)cc1 (stereo partly drawn) [Compound 1362], the EC50 is reported as < 8 nM.

Work on N=C1SCCN1CCCOc1ccc(C2c3[nH]c4ccc(Cl)cc4c3CCN2C(=O)OCCF)cc1 (stereo not drawn) [Compound 1432] yielded an EC50 of 8 to 40 nM.

Molecule COC(=O)N1CCc2c([nH]c3ccc(Cl)cc23)C1c1ccc(OCC2CCCCN2C)cc1 (stereo not drawn) [Compound 1010] has an EC50 of 40 to 200 nM.

In the case of CC(C)OC(=O)N1CCc2c([nH]c3ccc(Cl)cc23)C1c1ccc(OCCCO)cc1 (stereo not drawn) [Compound 1074], the EC50 is reported as < 8 nM.

With CCOC(=O)N1CCc2c([nH]c3ccc(Cl)cc23)C1c1ccc(OCC#N)cc1 (stereo not drawn) [Compound 1543] the EC50 was < 8 nM.

With CC(C)OC(=O)N1CCc2c([nH]c3ccc(Cl)cc23)[C@@H]1c1ccc(OCC[C@H](O)CO)cc1 [Compound 1295] the EC50 was < 8 nM.

In the case of O=C(OCc1ccccc1)N1CCc2c([nH]c3ccc(Cl)cc23)C1c1ccc(OCCCN2CCOCC2)cc1 (stereo not drawn) [Compound 1106], the EC50 is reported as < 8 nM.

With CCOC(=O)N1CCc2c([nH]c3ccc(Cl)cc23)C1c1ccc(OCC(O)Cn2nccn2)cc1 (stereo not drawn) [Compound 1073] the EC50 was < 8 nM.

With O=C(Oc1ccccc1Cl)N1CCc2c([nH]c3cc(Br)ccc23)C1c1ccc(OC(F)F)cc1 (stereo not drawn) [Compound 1449] the EC50 was 200 to 1000 nM.

O=C(Oc1ccc(Cl)cc1)N1CCc2c([nH]c3ccc(Cl)cc23)[C@@H]1c1ccc(OCCCNC2CCCC2)cc1 [Compound 1235] was tested, and the EC50 was 8 to 40 nM.

With OCC(CO)COc1ccc(C2c3[nH]c4ccc(Cl)cc4c3CCN2c2ncccn2)cc1 (stereo not drawn) [Compound 1243] the EC50 was 8 to 40 nM.

With C=CCOC(=O)N1CCc2c([nH]c3ccc(Cl)cc23)C1c1ccc(OCCCn2nccn2)cc1 (stereo not drawn) [Compound 1081] the EC50 was < 8 nM.

N#CCOc1ccc(C2NCCc3c2[nH]c2ccc(Cl)cc32)cc1 (stereo not drawn) [Compound 1550] showed an EC50 of 200 to 1000 nM.

With C[Si](C)(C)CCS(=O)(=O)N1CCC(Oc2ccc(C3c4[nH]c5ccc(Cl)cc5c4CCN3c3ncccn3)cc2)CC1 (stereo not drawn) [Compound 1583] the EC50 was < 8 nM.

With COc1ccc(C2c3[nH]c4ccc(Cl)cc4c3CCN2C(=O)Oc2ccc(Cl)cc2)cc1OCCN1CCOCC1 (stereo not drawn) [Compound 1095] the EC50 was 200 to 1000 nM.

In the case of CCOC(COc1ccc(C2c3[nH]c4ccc(Cl)cc4c3CCN2C(=O)Oc2ccc(Cl)cc2)cc1)OCC (stereo not drawn) [Compound 1228], the EC50 is reported as < 8 nM.

In the case of COc1ccc(OC(=O)N2CCc3c([nH]c4c(C)cccc34)C2c2ccc(OC)cc2)cc1 (stereo not drawn) [Compound 1427], the EC50 is reported as > 1000 nM.

In the case of CC1(C)OCC(COc2ccc([C@H]3c4[nH]c5ccc(Cl)cc5c4CCN3c3ncccn3)cc2)CO1 [Compound 1242], the EC50 is reported as < 8 nM.

O=C(Oc1ccc(Cl)cc1)N1CCc2c([nH]c3ccc(Cl)cc23)[C@@H]1c1ccc(OCC(CO)CO)cc1 [Compound 1209] was tested, and the EC50 was < 8 nM.

With COc1ccc(C2c3[nH]c4ccc(Cl)cc4c3CCN2C(=O)OCC(C)C)cn1 (stereo not drawn) [Compound 1481] the EC50 was 8 to 40 nM.

In the case of CC1(COC(=O)N2CCc3c([nH]c4ccc(Cl)cc34)[C@@H]2c2ccc(OC[C@H](O)CO)cc2)CC1 [Compound 1378], the EC50 is reported as < 8 nM.

For O=C(OCc1ccccc1)N1CCc2c([nH]c3ccc(Cl)cc23)C1c1ccc(OCCCO)cc1 (stereo not drawn) [Compound 1059], the EC50 was < 8 nM.

For CC#CCOC(=O)N1CCc2c([nH]c3ccc(Cl)cc23)C1c1ccc(OCC(O)CN)cc1 (stereo not drawn) [Compound 1002], the EC50 was 40 to 200 nM.

CCOC(=O)N1CCc2c([nH]c3ccc(Cl)cc23)C1c1ccc(OCC(O)CNS(=O)(=O)C(C)C)cc1 (stereo not drawn) [Compound 1474] gave an EC50 of 8 to 40 nM.

Work on COc1ccc(OC(=O)N2CCc3c([nH]c4cc(Br)ccc34)C2c2ccc(OC(F)F)cc2)cc1 (stereo not drawn) [Compound 1447] yielded an EC50 of 40 to 200 nM.

CCCOC(=O)NCC(O)CCOc1ccc([C@H]2c3[nH]c4ccc(Cl)cc4c3CCN2C(=O)OCC)cc1 (stereo partly drawn) [Compound 1620] was tested, and the EC50 was < 8 nM.

CC#CCOC(=O)N1CCc2c([nH]c3ccc(Cl)cc23)[C@@H]1c1ccc(OC2CCN(C[C@H](O)CO)CC2)cc1 [Compound 1697] was tested, and the EC50 was < 8 nM.

For CC(C)(C)OC(=O)N1CCc2c([nH]c3ccc(Cl)cc23)C1c1ccc(OCCCn2cncn2)cc1 (stereo not drawn) [Compound 1188], the EC50 was < 8 nM.

COCCOC(=O)N1CCc2c([nH]c3ccc(Cl)cc23)C1c1ccc(OCCn2nc(N)cc2C)cc1 (stereo not drawn) [Compound 1437] was tested, and the EC50 was 8 to 40 nM.

For [H]/N=c1\scnn1CCOc1ccc(C2c3[nH]c4ccc(Cl)cc4c3CCN2C(=O)OCC#CC)cc1 (stereo not drawn) [Compound 1403], the EC50 was < 8 nM.

With C=CCOc1ccc([C@H]2c3[nH]c4ccc(Cl)cc4c3CCN2c2ncccn2)cc1 [Compound 1237] the EC50 was < 8 nM.

In the case of CN1CCCC1CCOc1ccc(C2c3[nH]c4ccc(Cl)cc4c3CCN2C(=O)Oc2ccc(F)cc2)cc1 (stereo not drawn) [Compound 1008], the EC50 is reported as 40 to 200 nM.

For C=CCOC(=O)N1CCc2c([nH]c3ccc(Cl)cc23)C1c1ccc(OCCCN2CCN(C)CC2)cc1 (stereo not drawn) [Compound 1072], the EC50 was < 8 nM.

With CCOC(=O)N1CCc2c([nH]c3ccc(Cl)cc23)[C@@H]1c1ccc(OC2COC2)cc1 [Compound 1699] the EC50 was < 8 nM.

Molecule COc1ccc(OC(=O)N2CCc3c([nH]c4ccc(C#N)cc34)C2c2ccc(OC)cc2)cc1 (stereo not drawn) [Compound 1516] has an EC50 of 200 to 1000 nM.

CCOC(=O)N1CCc2c([nH]c3ccc(Cl)cc23)C1c1ccc(OCC(O)CNC(=O)OCCOC)cc1 (stereo not drawn) [Compound 1472] was tested, and the EC50 was < 8 nM.

COc1ccc(C2c3[nH]c4ccc(Cl)cc4c3CCN2c2nc(-c3cccnc3)cs2)cc1 (stereo not drawn) [Compound 1592] was tested, and the EC50 was 40 to 200 nM.

In the case of CC(C)OC(=O)N1CCc2c([nH]c3ccc(Cl)cc23)C1c1ccc(OCCCN2CCN(C)CC2)cc1 (stereo not drawn) [Compound 1103], the EC50 is reported as 8 to 40 nM.

COc1ccc(C2c3[nH]c4ccc(Cl)cc4c3CCN2C(=O)C(=O)Nc2ccc(C#N)cc2)cc1 (stereo not drawn) [Compound 1716] showed an EC50 of 200 to 1000 nM.

For COc1ccc(OC(=O)N2CCc3c([nH]c4ccc(Cl)cc34)C2c2ccc(OCC(=O)NCCN3CCOCC3)cc2)cc1 (stereo not drawn) [Compound 1026], the EC50 was 8 to 40 nM.

CCOC(=O)N1CCc2c([nH]c3ccc(Cl)cc23)[C@@H]1c1ccc(Oc2nccnc2C)cc1 [Compound 1654] was tested, and the EC50 was < 8 nM.

O=C(Oc1ccc(Cl)cc1)N1CCc2c([nH]c3ccc(Cl)cc23)C1c1ccc(OC(CO)CO)cc1 (stereo not drawn) [Compound 1231] showed an EC50 of 8 to 40 nM.

Work on CCN1CCN(C(=O)COc2ccc(C3c4[nH]c5ccc(Cl)cc5c4CCN3C(=O)Oc3ccc(F)cc3)cc2)CC1 (stereo not drawn) [Compound 1024] yielded an EC50 of 40 to 200 nM.

CCCOC(=O)N1CCc2c([nH]c3ccc(Cl)cc23)C1c1ccc(OCC[C@H]2COC(C)(C)O2)cc1 (stereo partly drawn) [Compound 1164] was tested, and the EC50 was < 8 nM.
